We go through 8 compounds from patent US20260250312A1, “ANTIBACTERIAL COMPOUNDS ELIMINATING DORMANT BACTERIAL CELLS” (UNIVERSITÉ D'AIX-MARSEILLE, priority 2022, published 2026).

Assay [1] concerns Pseudomonas aeruginosa (ATCC27853). The assay is described as follows: Microdilution MIC assay (CLSI-based), P. aeruginosa. The format is cell-based. As to conditions: 20 hours incubation at 35-37° C., MHB; for MIC: read-out: Minimum inhibitory concentration P. aeruginosa ATCC27853. Here is the method: (§1) The antibacterial activity of compounds was measured using a standard microdilution assay based on the Clinical and Laboratory Standards Institute (CLSI) guidelines. This method was slightly modified. Indeed, assay volumes were increased to 200 μL to improve reproducibility. The chemical compounds to be tested were in the form of salts for biological testing.
(§2) Bacteria tested: Antibacterial activities of the compounds were tested on Staphylococcus aureus (ATCC25923), Enterococcus faecalis (ATCC29212), Escherichia coli ([…]) and Pseudomonas aeruginosa (ATCC27853).
(§3) Preparation of the Preculture: Mueller Hinton Agar plates were inoculated with frozen biological strain in order to obtain separate colonies and the plates were incubated during 24 h at 35-37° C. 3 colonies of similar aspect were picked out, resuspended in 5 mL of fresh Mueller Hinton broth 1× (MHB) and incubated with shaking (160 rpm) at 35-37° C. overnight.
(§4) 0.1 mL of bacteria in exponential phase were suspended in 9.9 mL of MHB (1:100 dilution). 0.1 mL of the 1:100 dilution were dispensed into the wells of microplates containing 0.1 ml of serial compounds dilutions to yield ca. 5×10^5 CFU/mL. In parallel, the stocks solutions of chemical compounds were first diluted in appropriate solvent to a final concentration of 5 mg/mL. 8 μL were dispended into the first wells of the microplates containing 0.1 ml of sterile broth and a 0.5 cascade dilution was performed in MHB from 0.2 mg/mL. One control was made for each strain tested. […] Tests were performed in triplicate.
(§5) Reading of the Results: After incubation, the filter was replaced with a transparent film, and an optical density reading was then taken in an iEMS plate spectrophotometer at 620 nm. Calculation of the minimum inhibitory concentration (MIC) was performed.
A general note: In broth dilution the organism is exposed to a series of concentrations in liquid medium.

For assay [2], the system named is Enterococcus faecalis (ATCC29212). The assay is described as follows: Microdilution MIC assay (CLSI-based), E. faecalis. The format is cell-based. As to conditions: 20 hours incubation at 35-37° C., MHB; for MIC: read-out: Minimum inhibitory concentration E. faecalis ATCC29212. Here is the method: as §1, §2, §3, §4, §5
A further assay has as its system CHO-K1 cells. Kind of assay: WST1 cytotoxicity test. The format is cell-based, Chinese hamster. The following applies: Cricetulus griseus, CHO-K1, 24 h, WST1, 24 hours at 37° C.; read-out: IC50 CHO. From the text:
Cytotoxicity: The test WST1 was used to measure the cytotoxic activity of the compounds of the invention. The test WST1 is a colorimetric test allowing to measure the viability and the degree of cell proliferation. It is based on cleavage of the colorless tetrazolium salts WST-1 (4—[3-(4-iodophenyl)-2-(4-nitrophenyl)-2H-5-tetrazolio]-1,3-benzene disulfonate) with mitochondrial dehydrogenases to the yellow-colored formazan derivative, which may be quantified by spectrophotometry at 420-480 nm. The WST1 test was performed on Chinese hamster ovary (CHO) cells. The CHO-K1 cells (ATCC, USA) were kept in culture in McCoy's 5A medium supplemented with 10% fetal calf serum, 2 mM of L-glutamine and a mixture of penicillin-streptomycin (100 U/ml: 10 μg/mL). The culture was incubated at 37° C. under an atmosphere enriched in CO2 (5%), and subcultured every two days. The cells were transferred into 96-well plates (25,000 cells/mL) in whole McCoy's 5A medium, and maintained for 24 hours at 37° C. under a humid atmosphere enriched in CO2 (5%). Increasing concentrations of tested compounds were added to the wells, each compound was tested in replicates and 8 growth controls containing the cells in the medium alone were included in each series of tests. After 24 hours at 37° C. (5% CO2), the culture medium was removed, the cells were rinsed in phosphate buffer (PBS) and 50 μL of PBS containing 10% of reagent WST1 were added to each well. After 20 minutes of incubation at 37° C., the results were read by spectrophotometry at 450 nm. The results are expressed in dose-response relationships, modeled by nonlinear regression analysis using the TableCurve software.
Cytotoxicity: The same WST1 test as described in Example 2 above was used.
For orientation: Tetrazolium dyes change colour on reduction, which living cells bring about.

Assay [3] concerns Staphylococcus aureus (ATCC25923). The assay is described as follows: Microdilution MIC assay (CLSI-based), S. aureus. It is filed as cell-based. As to conditions: 20 hours incubation at 35-37° C., MHB; for MIC: read-out: Minimum inhibitory concentration S. aureus ATCC25923. Here is the method: as §1, §2, §3, §4, §5
Assay [4] concerns Escherichia coli (ATCC28922). Kind of assay: Microdilution MIC assay (CLSI-based), E. coli. As to conditions: 20 hours incubation at 35-37° C., MHB; for MIC: read-out: Minimum inhibitory concentration E. coli ATCC28922. It is filed as cell-based. How it is done:
as §1, §2, §3, §4, §5

The mark [5] stands for this setting: Pseudomonas aeruginosa, ATCC27853, 20 h.
The mark [6] stands for this setting: Enterococcus faecalis, ATCC29212, 20 h.
[7] abbreviates: Staphylococcus aureus, ATCC25923, 20 h.
Where [8] appears, read: Escherichia coli, ATCC28922, 20 h.

For orientation: IC50 means the point on the concentration scale where inhibition reaches its midpoint.

≈ marks a conversion by molar mass, not a printed value. Where “and” joins values, the source holds several entries; their conditions need not be identical. Equal values may be shown once. Read-outs that look alike come from different tables or passages of the source.

With `COC(=O)[C@H](NC(=O)CC[C@@H](C)[C@H]1CCC2C3C(CC[C@@]21C)[C@@]1(C)CC[C@H](NCCNCCNCCN)C[C@H]1C[C@H]3O)C(C)C` (stereo partly drawn) [Compound S012, methyl ((4R)-4-((3S,5S,7R,10S,13R,17R)-3-((2-((2-((2-aminoethyl)amino)ethyl)amino)ethyl)amino)-7-hydroxy-10,13-dimethylhexadecahydro-1H-cyclopenta[a]phenanthren-17-yl)pentanoyl)-D-valinate], the MIC in assay [1] (setting [5]) is 100 µM and 64 µg/mL; in assay [2] (setting [6]), 25 µM and 16 µg/mL; in assay [3] (setting [7]), 50 µM and 32 µg/mL; in assay [4] (setting [8]) it was 100 µM and 64 µg/mL. Besides, the IC50 in the assay with CHO-K1 cells was 101 µM and 64.2 µg/mL.

Consider `COC(=O)[C@H](Cc1ccccc1)NC(=O)CC[C@@H](C)[C@H]1CCC2C3C(CC[C@@]21C)[C@@]1(C)CC[C@H](NCCCCCCCCCCN)C[C@H]1C[C@H]3O` (stereo partly drawn) [Compound S032, methyl ((4R)-4-((3S,5S,7R,10S,13R,17R)-3-((10-aminodecyl)amino)-7-hydroxy-10,13-dimethylhexadecahydro-1H-cyclopenta[a]phenanthren-17-yl)pentanoyl)-L-phenylalaninate], for which the MIC is 200 µM and 128 µg/mL in assay [1] (setting [5]); 12.5 µM and 8 µg/mL in assay [2] (setting [6]); 50 µM and 32 µg/mL in assay [3] (setting [7]); 50 µM and 32 µg/mL in assay [4] (setting [8]).

Turning to `COC(=O)[C@H](NC(=O)CC[C@@H](C)[C@H]1CCC2C3C(C[C@H](O)[C@@]21C)[C@@]1(C)CC[C@H](NCCCN2CCN(CCCN)CC2)C[C@H]1C[C@H]3O)C(C)C` (stereo partly drawn) [Compound S059, methyl ((4R)-4-((3S,5S,7R,10S,12S,13R,17R)-3-((3-(4-(3-aminopropyl)piperazin-1-yl)propyl)amino)-7,12-dihydroxy-10,13-dimethylhexadecahydro-1H-cyclopenta[a]phenanthren-17-yl)pentanoyl)-D-valinate], the MIC in assay [1] (setting [5]) was > 200 µM and > 128 µg/mL; in assay [2] (setting [6]), > 200 µM and > 128 µg/mL; in assay [3] (setting [7]) it was 50 µM and 32 µg/mL; in assay [4] (setting [8]), 200 µM and 128 µg/mL. Moreover, the IC50 in the assay with CHO-K1 cells was 56.1 µM and 39.5 µg/mL.

In the case of `COC(=O)CNC(=O)CC[C@@H](C)[C@H]1CCC2C3C(CC[C@@]21C)[C@@]1(C)CC[C@H](NCCCN2CCN(CCCN)CC2)C[C@H]1C[C@H]3O` (stereo partly drawn) [Compound S006, methyl ((4R)-4-((3S,5S,7R,10S,13R,17R)-3-((3-(4-(3-aminopropyl)piperazin-1-yl)propyl)amino)-7-hydroxy-10,13-dimethylhexadecahydro-1H-cyclopenta[a]phenanthren-17-yl)pentanoyl)glycinate], the MIC in assay [1] (setting [5]) was > 200 µM and > 128 µg/mL; in assay [2] (setting [6]), > 200 µM and > 128 µg/mL; in assay [3] (setting [7]), 25 µM and 16 µg/mL; in assay [4] (setting [8]) it was > 200 µM and > 128 µg/mL. Also, the IC50 with CHO-K1 cells is 73.6 µM and 47.7 µg/mL.

`COC(=O)[C@H](Cc1ccccc1)NC(=O)CC[C@@H](C)[C@H]1CCC2C3CC[C@@H]4C[C@@H](NCCCN(CCCN)CCCN)CC[C@]4(C)C3C[C@H](O)[C@@]21C` (stereo partly drawn) [Compound S055, methyl ((4R)-4-((3S,5R,10S,12S,13R,17R)-3-((3-(bis(3-aminopropyl)amino)propyl)amino)-12-hydroxy-10,13-dimethylhexadecahydro-1H-cyclopenta[a]phenanthren-17-yl)pentanoyl)-L-phenylalaninate]: the MIC was 100 µM and 64 µg/mL in assay [1] (setting [5]); 50 µM and 32 µg/mL in assay [2] (setting [6]); 50 µM and 32 µg/mL in assay [3] (setting [7]); 25 µM and 16 µg/mL in assay [4] (setting [8]).

For `COC(=O)[C@@H](NC(=O)CC[C@@H](C)[C@H]1CCC2C3CC[C@@H]4C[C@@H](NCCCN5CCN(CCCN)CC5)CC[C@]4(C)C3CC[C@@]21C)C(C)C` (stereo partly drawn) [Compound S056, methyl ((4R)-4-((3S,5R,10S,13R,17R)-3-((3-(4-(3-aminopropyl)piperazin-1-yl)propyl)amino)-10,13-dimethylhexadecahydro-1H-cyclopenta[a]phenanthren-17-yl)pentanoyl)-L-valinate], the MIC in assay [1] (setting [5]) is > 200 µM and > 128 µg/mL; in assay [2] (setting [6]), 100 µM and 64 µg/mL; in assay [3] (setting [7]), 200 µM and 128 µg/mL; in assay [4] (setting [8]), 200 µM and 128 µg/mL.

With `COC(=O)CNC(=O)CC[C@@H](C)[C@H]1CCC2C3C(CC[C@@]21C)[C@@]1(C)CC[C@H](NCCCNCCCCNCCCN)C[C@H]1C[C@H]3O` (stereo partly drawn) [Compound S027, methyl ((4R)-4-((3S,5S,7R,10S,13R,17R)-3-((3-((4-((3-aminopropyl)amino)butyl)amino)propyl)amino)-7-hydroxy-10,13-dimethylhexadecahydro-1H-cyclopenta[a]phenanthren-17-yl)pentanoyl)glycinate], in assay [1], the “Minimum inhibitory concentration P. aeruginosa ATCC27853” value came out at 32 µg/mL (≈ 49.4 µM) and the MIC is 50 µM (≈ 32.4 µg/mL). Besides, in assay [2], the “Minimum inhibitory concentration E. faecalis ATCC29212” value turned out to be 16 µg/mL (≈ 24.7 µM) and the MIC is recorded as 25 µM (≈ 16.2 µg/mL). Besides, in assay [3], the “Minimum inhibitory concentration S. aureus ATCC25923” value turned out to be 4 µg/mL (≈ 6.17 µM) and the MIC was 6.25 µM (≈ 4.05 µg/mL). In assay [4], the “Minimum inhibitory concentration E. coli ATCC28922” value is 8 µg/mL (≈ 12.3 µM) and the MIC was determined as 12.5 µM (≈ 8.1 µg/mL).

Consider `COC(=O)[C@H](NC(=O)CC[C@@H](C)[C@H]1CCC2C3C(CC[C@@]21C)[C@@]1(C)CC[C@H](NCCCNCCCN)C[C@H]1C[C@H]3O)C(C)C` (stereo partly drawn) [Compound S021, methyl ((4R)-4-((3S,5S,7R,10S,13R,17R)-3-((3-((3-aminopropyl)amino)propyl)amino)-7-hydroxy-10,13-dimethylhexadecahydro-1H-cyclopenta[a]phenanthren-17-yl)pentanoyl)-D-valinate], for which, in assay [1], the “Minimum inhibitory concentration P. aeruginosa ATCC27853” value was 32 µg/mL (≈ 51.7 µM) and the MIC is reported as 50 µM (≈ 30.9 µg/mL). Besides, in assay [2], the “Minimum inhibitory concentration E. faecalis ATCC29212” value came out at 32 µg/mL (≈ 51.7 µM) and the MIC is listed as 50 µM (≈ 30.9 µg/mL). Moreover, in assay [3], the “Minimum inhibitory concentration S. aureus ATCC25923” value came to 8 µg/mL (≈ 12.9 µM) and the MIC is 12.5 µM (≈ 7.74 µg/mL). For the same compound, in assay [4], the “Minimum inhibitory concentration E. coli ATCC28922” value is 32 µg/mL (≈ 51.7 µM) and the MIC stood at 50 µM (≈ 30.9 µg/mL).
